The test system of test [1] is peanut specific TCL generated using CPE and rAra h 2. The test can be described thus: rAra h 2 pulsed peanut specific TCL proliferation assay (3H-thymidine). It is filed as cell-based, human. As to the method: FIG. 5 is a graphical representation of peanut allergic donor peanut specific Ara h 2 pulsed TCL proliferative responses Ara h 2 peptides, Ara h 2 and crude peanut extract. Peanut specific TCL (5×10^4 cells/ml) from individuals with peanut allergy were generated using CPE and rAra h 2, then stimulated with Ara h 2 peptides at a concentration of […] in the presence of autologous irradiated PBMC as APC (5×10^4 cells/ml) in 3 day cultures.
(§1) Freshly harvested or frozen stored PBMC were cultured in 24-well plates (Greiner Biotechnik, Germany) at 2.5×10^6 cells per well (2 ml volume) in complete medium with antigen at an optimised concentration for 7 days at 37° C. in a 5% CO2 humidified incubator. In the case of frozen PBMC the cells were first washed once in wash medium, 1 in 10 dilution of PBMC to medium, and pelleted at 329×g for 10 minutes to remove DMSO. At day 7 cells were washed once and resuspended at 1 to 1.5×10^6/ml and added together with 1×10^6/ml washed irradiated (3000 rads; Gammacell 1000 Elite, Nordion International, Inc.) autologous PBMC (from liquid nitrogen stocks) and antigen into fresh 24-well plates. At day 2 following restimulation, 25 U/ml of recombinant human interleukin-2 (rIL-2) was added and at day 4, 1 ml of culture medium was removed and replaced with fresh medium and 25 U/ml rIL-2. For some experiments due to low cell numbers at 2 weeks, 3 week TCLs were generated by restimulation with antigen and rIL-2 as above for a further week. In all experiments T cells were rested for 6 to 7 days after the last addition of antigen and APC.
5.0×10^4/well TCL cells were cultured in triplicate in 96-well U bottom plates (Linbro ICN Biomedicals, USA) with antigen or medium alone and rIL-2 as negative and positive controls respectively, in the presence of autologous irradiated (3000 rads) PBMC (5.0×10^4/well). […] In the last 16 hours of culture, wells were pulsed with ^3H-thymidine (1 μCi/well), then harvested onto printed glass fibre filters with a 96-well automatic cell harvester. ^3H-thymidine incorporation was measured by liquid scintillation spectroscopy. […]

Test [2] deals with peanut specific TCL generated using CPE. Nature of the test: CPE driven peanut specific TCL proliferation assay (3H-thymidine). It is filed as cell-based, human. Particulars: for responders with a proliferative response to the peptide / proliferative response: CPE driven TCL; for responders with a proliferative response to the peptide: 8 responders; for proliferative response: peptide 10 μg/ml, stimulation index ≧2.5; for subjects responding to the peptide who also had a proliferative response to Ara h 2: subjects with a response to Ara h 2 (19-38) and Ara h 2 (28-47). As to the method: FIG. 4 is a graphical representation of peanut allergic donor peanut specific TCL proliferative responses to Ara h 2 peptides, Ara h 2 and crude peanut extract. Peanut specific TCL (5×10^4 cells/ml) from individuals with peanut allergy generated using CPE were stimulated with Ara h 2 peptides at a concentration of 10 μg/ml in the presence of autologous irradiated PBMC as APC (5×10^4 cells/ml) in 3 day cultures.
as §1
5.0×10^4/well TCL cells were cultured in triplicate in 96-well U bottom plates (Linbro ICN Biomedicals, USA) with antigen or medium alone and rIL-2 as negative and positive controls respectively, in the presence of autologous irradiated (3000 rads) PBMC (5.0×10^4/well). Cultures were incubated for 3 days. In the last 16 hours of culture, wells were pulsed with ^3H-thymidine (1 μCi/well), then harvested onto printed glass fibre filters with a 96-well automatic cell harvester. ^3H-thymidine incorporation was measured by liquid scintillation spectroscopy.
To determine the T cell epitopes of Ara h 2, oligoclonal CPE-specific TCL were generated from PBMC of 21 peanut-allergic donors and 5 non-peanut allergic donors, and stimulated with a nested set of synthetic peptides spanning the entire Ara h 2 sequence (FIG. 1). A peptide concentration of 10 μg/ml was determined to be the optimal stimulating concentration within proliferation assays. Optimisation included assays at both 10 μg/ml and 30 μg/ml. […] In this setting, and because of the limited availability of donor cells and the cost of commercially prepared peptides, the lower concentration was used.
Several approaches to the production of TCL were used, including stimulation of cells with two and three pulses of CPE separated by 7 days each, two pulses of CPE with a third pulse of rAra h 2, again separated by 7 days each, and three stimulations with rAra h 2. Responses by TCL receiving two CPE stimulations were in general lower than those receiving three stimulations, such that it was felt the sensitivity of the assay may be compromised. […] This lead to the use of TCL stimulated with 3 pulses of CPE, each separated by 7 days for all subjects tested.

For test [3] the test system is unchanged. Nature of the test: Cytokine ELISA (IL-5, IFN-γ) of CPE driven TCL supernatants. It is filed as cell-based, human. Particulars: for IL-5 production: 48 hours. Here is the method: FIG. 7 is a graphical representation of peanut allergic donor peanut specific Ara h 2 pulsed TCL cytokine responses to Ara h 2 peptides, Ara h 2 and crude peanut extract. Peanut specific TCLs (5×10^4/ml) from individuals with peanut allergy were generated using CPE, then stimulated with Ara h 2 peptides at a concentration of 10 ug/ml in the presence of autologous irradiated PBMC as APC (5×10^4/ml) in 3 day cultures. Cytokine supernatants were collected after 48 hours culture and assayed by specific ELISA. […] Peptides associated with a significant proliferative response are shaded grey.
Supernatants (70-75 μl/well of triplicate cultures) were harvested and pooled from T cell proliferation assay cultures at 48 hours (IL-5, IFN-γ) and frozen at −80° C. Harvested supernatants were replaced with warm (37° C.) complete medium and cells subsequently pulsed and harvested as described previously.
IL-5 and IFN-γ levels in culture supernatants were measured by sandwich ELISA. White Costar (Corning, USA) ELISA plates were coated with capture mAb (IL-5 and IFN-γ, 2 μg/ml; 30 μl/well) diluted in binding buffer overnight at 4° C. Plates were then washed three times in PBS/0.05% Tween (wash buffer) and wells blocked with 100 μl/well of 1% BSA/PBS (blocking buffer) for 1 hour at room temperature. Following three washes in wash buffer, 30 μl/well of serial dilutions of recombinant human IL-5 or IFN-γ (5000-0.15 pg/ml) in blocking buffer-0.05% Tween or culture supernatants were added and incubated overnight at 4° C. Following four washes in wash buffer, plates were incubated with biotinylated detection mAb (IL-5, 1 μg/ml; IFN-γ, 0.5 μg/ml; 50 μl/well) diluted in blocking buffer for 1 hour at room temperature. Plates were then washed 6 times in wash buffer and incubated with a 1 in 2000 dilution of streptavidin-peroxidase (50 μl/well) in blocking buffer for 45 minutes at room temperature. Following 8 washes in wash buffer, 100 μl/well of freshly prepared chemiluminescent substrate (Perkin-Elmer, USA) was used and plates read in a Lumicount microplate glow luminometer (Packard Instrument Company, USA), 0.5 seconds/well, automatic sensitivity setting. Standard curve construction and determination of unknown cytokine levels was performed using Packard Instruments software. IL-5 and IFN-γ ELISA sensitivities were 2 pg/ml and 4 pg/ml, respectively.
To identify the phenotype of T cells associated with a peptide proliferative response, supernatants were collected from TCL cultures 48 hours after stimulation with peptides and assayed for the presence of IL-5 and IFN-γ. For each donor, peptides associated with a proliferative response and two peptides not associated with a proliferative response were tested. […] In general, cytokine responses were at the lower limits of detection. […]
On the technique in general: An ELISA detects its analyte on a solid surface through an enzyme-linked reagent.

The subject of another test is serum IgE. The test can be described thus: Western blot of CPE for serum IgE reactivity to Ara h 2. Particulars: western blotting of CPE. Format: binding, human. An excerpt:
Following resolution of CPE on a 14% polyacrylamide gel, proteins were transferred to nitrocellulose and probed with sera from the study population, and non-peanut allergic controls. IgE was detected using HRP conjugated mouse anti-human IgE and enhanced chemiluminescence.
SDS-PAGE gels were assembled into stacks in transfer buffer as follows: blotting paper, nitrocellulose membrane, gel and blotting paper. Sample proteins and pre-stained molecular weight markers were electrophoretically transferred from SDS-PAGE gels to nitrocellulose at 30 volts for 3 hours in an Xcell II blot module (Novex, USA). Following transfer, the nitrocellulose membrane was stained with Ponceau S to ensure adequate protein transfer, then cut into strips and blocked by incubation with 10% milk powder-PBS for 1 hour at room temperature. The blocked nitrocellulose membrane was then washed in PBS and incubated with sample sera diluted 1 in 5 with 1% milk powder-PBS-Tween for all proteins except for Ara h 1, whereupon a 1 in 10 serum dilution was used. Incubation took place overnight, following which the blot was washed 3 times in PBS-Tween, 5 minutes/wash. […] The nitrocellulose was then photographed and analysed using Labworks image acquisition software (UVP Laboratory Products, UK). […]

In another test the test system is specific IgE. The settings on record: cited from earlier work.

As for “PYDRRGAGSSQHQERCCNEL (Peanut Ara h 2) [Ara h 2 (73-92), Ara h 2 20-mer peptide, residues 73-92]”, the “pattern of reactivity of subject 6” value in test [1] (subject 6, rAra h 2 pulsed TCL) is “did not include”. In test [2], the “responders with a proliferative response to the peptide” value was 3 of the 8.

Turning to “RCMCEALQQIMENQSDRLQG (Peanut Ara h 2) [Ara h 2 (100-119), Ara h 2 20-mer peptide, residues 100-119]”, the proliferative response result in test [2] is given as “inducing proliferative responses”.

In the case of “RQQWELQGDRRCQSQLERAN (Peanut Ara h 2) [Ara h 2 (19-38), Ara h 2 20-mer peptide, residues 19-38]”, the “reactivity of subject 10” value in test [1] (subject 10, both types of TCL preparation) was “reacted”. Besides, in test [1] (subject 10, rAra h 2 pulsed TCL), the “magnitude of response relative to other peptides” value was “less than that generated by stimulation with Ara h 2 (37-56) and Ara h 2 (46-65)”. In test [3] (subject 10, CPE driven TCL), the IL-5/IFN-γ ratio is recorded as ~7 and the IL-5 production stood at 540 pg/mL. In test [3] (subject 21, CPE driven TCL), the IL-5/IFN-γ ratio result is listed as “approximately 20” and the IL-5 production came to 2054 pg/mL. Besides, in test [2], the “responders with a proliferative response to the peptide” value was 3 of the 8 and the “subjects responding to the peptide who also had a proliferative response to Ara h 2” value is reported as 60%. Further, the “subjects demonstrating their greatest response to this peptide” value in test [2] (response magnitude ranked for each subject) is reported as 3.

With “RRCQSQLERANLRPCEQHLM (Peanut Ara h 2) [Ara h 2 (28-47), Ara h 2 20-mer peptide, residues 28-47]”, in test [2], the proliferative response entry is “inducing proliferative responses” and the “subjects responding to the peptide who also had a proliferative response to Ara h 2” value is 60%.

B1: Ara h 2: major peanut allergen, a glycoprotein of the conglutin seed storage family (protein)
chain: LTILVALALFLLAAHASARQQWELQGDRRCQSQLERANLRPCEQHLMQKIQRDEDSYERDPYSPSQDPYSPSPYDRRGAGSSQHQERCCNELNEFENNQRCMCEALQQIMENQSDRLQGRQQEQQFKRELRNLPQQCGLRAPQRCDLDVESGGRDRY
modifications: Peanut Ara h 2
notes: major peanut allergen, a glycoprotein of the conglutin seed storage family
Take B1: the “peanut allergic subjects possessing IgE reactive to Ara h 2 doublet” value in the test with serum IgE (22 peanut allergic subjects) was 20 out of the 22. Moreover, the “IgE binding to Ara h 2 in non-peanut allergic controls” value with serum IgE (non-peanut allergic controls) was “weak and potentially non-specific”. In addition, the “sera reactive with Ara h 2” value with specific IgE (Burks et al, 1992) is 6 out of 6. Also, the “subjects with specific IgE to purified natural Ara h 2” value in the test on specific IgE (de Jong et al. 1998) is recorded as “approximately 78%”. In addition, the “subjects possessing specific IgE to Ara h 2” value in the test on specific IgE (western blotting of crude peanut extract, Clarke et al. 1998) is reported as 71%. For the same molecule, the “subjects possessing IgE towards the recombinant form” value with specific IgE (western blotting, Kleber-Janke et al. 1999) is 85%.

These data come from patent US8057800B2, “Immunointeractive molecules and uses thereof” (Circassia Limited, priority 2004, dated 2011).
